According to patent publication US11491132B2, “Methods for treating thrombocytopenia” (Enzychem Lifesciences Corporation, priority 2014, dated 2022):

Experiments:
C3 = C3 expression in HepG2 cell line, RT-PCR of mRNA; type: cell-based, human; conditions: HepG2 cells, 2 hours
Method: A liver cell line, HepG2 (American Type Culture Collection, ATCC, Rockville, Md.), is incubated and maintained at 37° C., 5% CO2 humid atmosphere in DMEM medium. When HepG2 cells, which are known to produce complement in culture, are treated with PLAG, the activity of complement is reduced effectively, as confirmed by RT-PCR of mRNA. In the RT-PCR, 5×10^5 number of HepG2 cells/ml are distributed into 12 well plates and induced C3 for 12 hours with 10% FCS. Then PLAG is added and further cultured for 2 hours. Cells are harvested and mRNA is isolated and RT-PCR is carried out with specific primer of C3; GAPDH is used as an internal control.

STAT6 [1] = biological target: T1, STAT6 (Homo sapiens, UniProt P42226); experiment: Dephosphorylation of STAT6 in PLAG treated cells, western blot; type: cell-based; design: endogenous in cells; host or cells: U937, A549, Jurkat; conditions: U937, Jurkat and A549 cells; PLAG 0.01 to 10 μg/ml; 15 min after 10 ng/ml IL-4
T1 sequence (P42226 1-847): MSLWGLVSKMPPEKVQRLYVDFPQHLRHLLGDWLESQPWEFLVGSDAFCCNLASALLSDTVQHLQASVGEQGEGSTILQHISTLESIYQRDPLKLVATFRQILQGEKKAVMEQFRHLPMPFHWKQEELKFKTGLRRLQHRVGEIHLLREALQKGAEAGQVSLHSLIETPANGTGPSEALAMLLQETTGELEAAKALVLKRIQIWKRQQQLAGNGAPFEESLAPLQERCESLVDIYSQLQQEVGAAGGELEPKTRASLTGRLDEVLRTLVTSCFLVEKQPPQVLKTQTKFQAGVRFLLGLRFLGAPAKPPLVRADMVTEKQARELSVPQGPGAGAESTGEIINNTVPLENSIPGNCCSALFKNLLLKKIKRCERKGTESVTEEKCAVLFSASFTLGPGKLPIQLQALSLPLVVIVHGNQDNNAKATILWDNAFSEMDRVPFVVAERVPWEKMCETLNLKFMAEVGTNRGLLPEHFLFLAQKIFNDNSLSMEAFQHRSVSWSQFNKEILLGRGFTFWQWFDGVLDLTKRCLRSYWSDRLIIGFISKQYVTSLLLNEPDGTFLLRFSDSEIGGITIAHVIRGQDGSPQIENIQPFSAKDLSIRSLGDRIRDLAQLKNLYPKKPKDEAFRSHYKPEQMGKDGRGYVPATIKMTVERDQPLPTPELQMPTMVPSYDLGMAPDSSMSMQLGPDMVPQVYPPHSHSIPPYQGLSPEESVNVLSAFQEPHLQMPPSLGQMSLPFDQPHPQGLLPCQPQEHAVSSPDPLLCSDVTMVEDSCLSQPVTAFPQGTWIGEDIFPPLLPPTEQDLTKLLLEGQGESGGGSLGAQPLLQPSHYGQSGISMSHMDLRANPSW
Method: Dephosphorylation of STAT6 is examined using anti-phosphorylated STAT6 in U937, A549, and Jurkat cell lysates treated with PLAG concentration from 0.01 to 10 μg/ml. Phosphorylation of STAT6 is induced by treatment with 10 ng/ml of IL-4. Dephosphorylation of STAT1 is examined in the U937 cell lysate treated with PLAG (0.01 to 10 μg/ml). Phosphorylation of STAT1 is induced by 10 ng of IFN-γ treatment. Dephosphorylation of STAT1 and STAT6 is examined at 15 min after stimulation with IFN-γ and IL-4 respectively, in the PLAG pretreated cells. […] The transcriptional activity of STAT6 is decreased by the dephosphorylation of STAT6. […] No effect of PLAG on STAT1 phosphorylation is observed.

STAT6 [2] = biological target: T1, STAT6; experiment: Reporter (luciferase) assay for STAT6 transcriptional activity in HepG2 cells; type: cell-based; design: endogenous in cells; host or cells: HepG2 (gene transfected); conditions: gene transfected HepG2, 10 ng IL-4, PLAG 0.01-10 μg/ml, 12 hours incubation
Method: By using STAT6 inhibitor (S6I), it is confirmed that the reduction of Complement 3 in HepG2 cells (human hepatocyte cell line) is regulated by STAT6. […] It is also confirmed that PLAG has selective efficacy on STAT6 over STAT1. FIG. 1 presents graphs showing STAT1 and STAT6 transcriptional activity in the PLAG treated HepG2 cells. NC refers to the unstimulated control cell. For the STAT1 assay, gene transfected HepG2 (human hepatocyte cell line) is treated with 10 ng of IFN-γ and serially diluted PLAG is added (0.01 μg/ml, 0.1 μg/ml, 1 μg/ml, and 10 μg/ml as shown) to see its effect on gene expression in the stimulated cell. For the STAT6 assay, gene transfected HepG2 cells are treated with 10 ng of IL-4 and again serially diluted PLAG is added (0.01 μg/ml, 0.1 μg/ml, 1 μg/ml, and 10 μg/ml as shown) to see its effect on gene expression in the stimulated cell. The assay is carried out following 12 hours incubation of treated cells.

platelets = experiment: Phenylhydrazine-induced platelet reduction in mice; type: in vivo; conditions: PHZ 100 mg/kg i.p., PLAG 5 mg/kg orally
Method: To evaluate the effect of PLAG on the concentration of platelets mice are treated with compounds which would be expected to cause reductions in platelet numbers, specifically phenylhydrazine, tamoxifen or lipopolysaccharide.
Mice are injected with 100 mg/kg phenylhydrazine (PHZ), i.p., to induce anemia and reduction of platelets. 5 mg/kg PLAG is administered to the mice orally and blood samples are taken at 3 and 13 days after. In addition, for comparison, normal mice which are not treated with phenylhydrazine are prepared as a normal group, and mice treated with PHZ and olive oil instead of PLAG are prepared as a control group. The blood samples taken from the mice are treated with 0.5 ml EDTA (Minicollect tube, Greiner bio-one, Austria) and concentration of platelet is measured using automated blood sample analyzer BC-6800 (Mindray, Shenzhen, China) by number of platelet per […] (k: 1,000).

Structure (SMILES): CCCCC/C=C\C/C=C\CCCCCCCC(=O)OC(COC(C)=O)COC(=O)CCCCCCCCCCCCCCC (racemic) [PLAG, 1-palmitoyl-2-linoleoyl-3-acetylglycerol]
- inhibition of C3 expression (RT-PCR) (C3; PLAG 1 microgram/ml): somewhat
- inhibition of C3 expression (RT-PCR) (C3; PLAG 10 microgram/ml): entirely
- IL-4 treatment induced STAT6 phosphorylation (STAT6 [1]): inhibited with increasing PLAG concentrations
- STAT6 expression (transcriptional activity, reporter) (STAT6 [2]): significant, dose-dependent effect
- Platelet (day 3) Conc (platelets): 1072 ± 125.4 k/ul
